Source: PMC12471299, “Secondary Metabolites of the Marine Sponge-Derived Fungus Aspergillus subramanianii 1901NT-1.40.2 and Their Antimicrobial and Anticancer Activities” (Marine Drugs, 2025)
Values after ≈ are worked out from the molar mass of the structure shown. Values joined by “and” are separate entries in the source; they are usually repeats but may differ in a detail not shown here. Equal entries are not always repeated. Where two headings read alike, the source gives them in different places.

Legend:
[1] = test system: methicillin-resistant S. aureus (MRSA); parameters: method as in PMID 29642369; conditions: cited from earlier work
S. aureus ATCC 29213 = test system: S. aureus ATCC 29213; parameters: method as in PMID 29642369; conditions: cited from earlier work
MCF-7 cells = test system: MCF-7 cells; parameters: method as in PMID 29642369; conditions: cited from earlier work
[2] = test system: malignant glioma T98G cells; parameters: method as in PMID 29642369; conditions: cited from earlier work
H9c2 cardiomyocytes = test: Cell viability assay (MTT); assay type: cell-based, rat
Summary of the method: (§1)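 Seeding/well: H9c2 3 × 10^3; MDA-MB-231, MCF-10A 5 × 10^3; HaCaT 1 × 10^4. Treatment began 24 h post-seeding; compounds ≤100 µM, 24 h or 48 h, 37 °C. Read-out MTT, % of DMSO control.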

[3] = Cell viability assay (MTT); assay type: cell-based, rat; conditions: rat, H9c2 cardiomyocytes, read-out: Cytotoxicity IC50; for IC50 at 24 h: H9c2, 24 h; for IC50 at 48 h: H9c2, 48 h
Summary of the method: as §1

Candida albicans KMM 455 [4] = test: Biofilm formation assay (MTT); assay type: cell-based; conditions: C. albicans, 18 h
Summary of the method: (§2)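 Cultures grown 24 h at 37 °C on Mueller Hinton agar; compound applied at concentrations of 100 µM and below. After 18 h, growth read at OD620 and biofilm via MTT at OD570; results expressed as percent of 1% DMSO/PBS control and given as MIC50.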

[5] = test system: Escherichia coli VKPM (B-7935); test: Biofilm formation assay (MTT); assay type: cell-based; conditions: E. coli, 18 h
Summary of the method: as §2

[6] = test system: MCF-10A breast epithelial cells; test: Cell viability assay (MTT); assay type: cell-based, human; conditions: MCF10A
Summary of the method: as §1

HaCaT keratinocytes = test: Cell viability assay (MTT); assay type: cell-based, human
Summary of the method: as §1

[7] = test system: MDA-MB-231 breast cancer cells; test: Cell viability assay (MTT); assay type: cell-based, human
Summary of the method: as §1

[8] = test system: MCF-7 breast cancer cells; test: Cell viability assay (MTT); assay type: cell-based, human
[9] = Cell viability assay (MTT); assay type: cell-based, human; conditions: human, read-out: Cytotoxicity IC50
Summary of the method: as §1

Candida albicans KMM 455 [10] = test: Antimicrobial assay, growth inhibition (optical density); assay type: cell-based; conditions: C. albicans, 18 h; for MIC50: Candida albicans, KMM455, 18 h
Summary of the method: (§3)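 Strains were precultured on Mueller Hinton agar at 37 °C for 24 h, then exposed to compound at up to 100 µM. Growth was read as OD620 after 18 h; 18 h biofilm formation was quantified with MTT at OD570. Values are MIC50, the lowest concentration cutting growth or biofilm by 50% versus 1% DMSO/PBS control.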

[11] = test system: Staphylococcus aureus ATCC 21027; test: as above; assay type: cell-based; conditions: S. aureus, 18 h; for MIC50: Staphylococcus aureus, ATCC21027, 18 h
Summary of the method: as §3

[12] = MCF-7 breast cancer cells, MCF-7, 24 h
[13] = MCF-7 breast cancer cells, MCF-7, 48 h
[14] = MCF-10A breast epithelial cells, MCF10A, 24 h
[15] = MCF-10A breast epithelial cells, MCF10A, 48 h
[16] = MDA-MB-231 breast cancer cells, MDA-MB-231, 24 h
[17] = MDA-MB-231 breast cancer cells, MDA-MB-231, 48 h

SMILES: COc1c(OC)c(-c2c[nH]c3ccc(O)cc23)c(OC)c(OC)c1-c1c[nH]c2ccccc12 [Compound 8, petromurin C]
- effect with oxacillin ([1]; MRSA S. aureus 66/1, with oxacillin): synergistic effect
- antibacterial activity (S. aureus ATCC 29213): did not inhibit the growth
- IC50 (MCF-7 cells; MCF-7 cells, read-out: IC50, cell viability): 94.8 µM
- effectiveness ([2]; T98G cells): not effective
- cell viability (H9c2 cardiomyocytes; H9c2, 24 h, 1.0 µM): 100.9 ± 1.7 % of control
- cell viability (H9c2 cardiomyocytes; H9c2, 24 h, 10.0 µM): 95.9 ± 2.3 % of control
- cell viability (H9c2 cardiomyocytes; H9c2, 24 h, 100.0 µM): 57.4 ± 8.5 % of control
- cell viability (H9c2 cardiomyocytes; H9c2, 48 h, 1.0 µM): 101.6 ± 2.2 % of control
- cell viability (H9c2 cardiomyocytes; H9c2, 48 h, 10.0 µM): 79.8 ± 4.6 % of control
- cell viability (H9c2 cardiomyocytes; H9c2, 48 h, 100.0 µM): 55.8 ± 5.5 % of control
- IC50 at 24 h [3]: > 100 µM
- IC50 at 48 h [3]: > 100 µM
- Biofilm formation, MIC50 (Candida albicans KMM 455 [4]): 24.12 µM and 24.12 ± 3.07 µM
- Biofilm formation, MIC50 [5]: 83.01 µM and 83.01 ± 6.42 µM
- cell viability ([6]; 24 h, 1.0 µM): 91.9 ± 9.5 % of control
- cell viability ([6]; 24 h, 10.0 µM): 81.4 ± 1.0 % of control
- cell viability ([6]; 24 h, 100.0 µM): 52.0 ± 4.0 % of control
- cell viability ([6]; 48 h, 1.0 µM): 95.3 ± 3.4 % of control
- cell viability ([6]; 48 h, 10.0 µM): 92.1 ± 2.1 % of control
- cell viability ([6]; 48 h, 100.0 µM): 45.7 ± 6.6 % of control
- cell viability (HaCaT keratinocytes; 24 h, 1.0 µM): 102.7 ± 7.7 % of control
- cell viability (HaCaT keratinocytes; 24 h, 10.0 µM): 93.1 ± 6.9 % of control
- cell viability (HaCaT keratinocytes; 24 h, 100.0 µM): 64.3 ± 1.9 % of control
- cell viability (HaCaT keratinocytes; 48 h, 1.0 µM): 95.8 ± 1.9 % of control
- cell viability (HaCaT keratinocytes; 48 h, 10.0 µM): 97.7 ± 1.4 % of control
- cell viability (HaCaT keratinocytes; 48 h, 100.0 µM): 36.8 ± 7.0 % of control
- cell viability ([7]; MDA-MB-231, 24 h, 1.0 µM): 89.4 ± 2.4 % of control
- cell viability ([7]; MDA-MB-231, 24 h, 10.0 µM): 103.6 ± 2.2 % of control
- cell viability ([7]; MDA-MB-231, 24 h, 100.0 µM): 63.7 ±4.8 % of control
- cell viability ([7]; MDA-MB-231, 48 h, 1.0 µM): 102.9 ± 0.5 % of control
- cell viability ([7]; MDA-MB-231, 48 h, 10.0 µM): 89.5 ± 3.1 % of control
- cell viability ([7]; MDA-MB-231, 48 h, 100.0 µM): 38.6 ± 1.7 % of control
- cell viability ([8]; MCF-7, 24 h, 1.0 µM): 105.4 ± 5.9 % of control
- cell viability ([8]; MCF-7, 24 h, 10.0 µM): 92.8 ± 3.0 % of control
- cell viability ([8]; MCF-7, 24 h, 100.0 µM): 53.7 ± 6.8 % of control
- cell viability ([8]; MCF-7, 48 h, 1.0 µM): 77.7 ± 3.7 % of control
- cell viability ([8]; MCF-7, 48 h, 10.0 µM): 70.6 ± 8.5 % of control
- cell viability ([8]; MCF-7, 48 h, 100.0 µM): 28.6 ± 4.3 % of control
- IC50 at 24 h ([9]; HaCaT keratinocytes, 24 h): > 100 µM
- IC50 at 48 h ([9]; HaCaT keratinocytes, 48 h): 80.5 ± 1.8 µM
- IC50 at 24 h [9, 12]: > 100 µM
- IC50 at 48 h [9, 13]: 61.5 ± 1.2 µM
- IC50 at 24 h [9, 14]: ≥ 100 µM
- IC50 at 48 h [9, 15]: 91 ± 4.1 µM
- IC50 at 24 h [9, 16]: > 100 µM
- IC50 at 48 h [9, 17]: 79.9 ± 1.2 µM
- Growth inhibition, MIC50 (Candida albicans KMM 455 [10]): 34.14 ± 2.1 µM
- MIC50 (Candida albicans KMM 455 [10]): 26 to 52 µM (≈ 11.6 to 23.1 µg/mL)
- Growth inhibition, MIC50 [11]: 26.74 ± 1.98 µM
- MIC50 [11]: 26 to 52 µM (≈ 11.6 to 23.1 µg/mL)

SMILES: COC1=C(c2c[nH]c3ccccc23)C(=O)C(CC=C(C)C)=C(c2c[nH]c3ccccc23)C1=O [Compound 6, kumbicin D]
- antibacterial activity ([1]; MRSA): not active
- antibacterial activity (S. aureus ATCC 29213): not active
- effect on cells (MCF-7 cells; MCF-7, at 100 µM): weak effects
- effect on cells ([2]; T98G, at 100 µM): weak effects
- cell viability (H9c2 cardiomyocytes; H9c2, 24 h, 1.0 µM): 104.0 ± 12.9 % of control
- cell viability (H9c2 cardiomyocytes; H9c2, 24 h, 10.0 µM): 92.9 ± 6.1 % of control
- cell viability (H9c2 cardiomyocytes; H9c2, 24 h, 100.0 µM): 30.9 ± 2.9 % of control
- cell viability (H9c2 cardiomyocytes; H9c2, 48 h, 1.0 µM): 99.7 ± 3.7 % of control
- cell viability (H9c2 cardiomyocytes; H9c2, 48 h, 10.0 µM): 88.6 ± 2.3 % of control
- cell viability (H9c2 cardiomyocytes; H9c2, 48 h, 100.0 µM): 21.6 ± 2.2 % of control
- IC50 at 24 h [3]: 72.2 ± 4.1 µM
- IC50 at 48 h [3]: 65.4 ± 2.1 µM
- Biofilm formation, MIC50 (Candida albicans KMM 455 [4]): 8.36 ± 0.95 µM
- Biofilm formation, MIC50 [5]: 10.34 ± 0.98 µM
- cell viability ([6]; 24 h, 1.0 µM): 101.6 ± 3.1 % of control
- cell viability ([6]; 24 h, 10.0 µM): 92.4 ± 3.6 % of control
- cell viability ([6]; 24 h, 100.0 µM): 23.9 ± 6.2 % of control
- cell viability ([6]; 48 h, 1.0 µM): 98.4 ± 4.5 % of control
- cell viability ([6]; 48 h, 10.0 µM): 87.4 ± 2.7 % of control
- cell viability ([6]; 48 h, 100.0 µM): 13.7 ± 3.2 % of control
- cell viability (HaCaT keratinocytes; 24 h, 1.0 µM): 97.2 ± 5.7 % of control
- cell viability (HaCaT keratinocytes; 24 h, 10.0 µM): 98.6 ± 3.5 % of control
- cell viability (HaCaT keratinocytes; 24 h, 100.0 µM): 21.5 ± 3.3 % of control
- cell viability (HaCaT keratinocytes; 48 h, 1.0 µM): 100.5 ± 3.3 % of control
- cell viability (HaCaT keratinocytes; 48 h, 10.0 µM): 80.0 ± 0.1 % of control
- cell viability (HaCaT keratinocytes; 48 h, 100.0 µM): 11.6 ± 3.5 % of control
- cell viability ([7]; MDA-MB-231, 24 h, 1.0 µM): 93.6 ± 4.8 % of control
- cell viability ([7]; MDA-MB-231, 24 h, 10.0 µM): 84.5 ± 6.7 % of control
- cell viability ([7]; MDA-MB-231, 24 h, 100.0 µM): 32.7 ± 5.2 % of control
- cell viability ([7]; MDA-MB-231, 48 h, 1.0 µM): 100.6 ± 2.2 % of control
- cell viability ([7]; MDA-MB-231, 48 h, 10.0 µM): 90.8 ± 1.2 % of control
- cell viability ([7]; MDA-MB-231, 48 h, 100.0 µM): 14.7 ± 0.6 % of control
- cell viability ([8]; MCF-7, 24 h, 1.0 µM): 107.6 ± 6.5 % of control
- cell viability ([8]; MCF-7, 24 h, 10.0 µM): 77.7 ± 7.5 % of control
- cell viability ([8]; MCF-7, 24 h, 100.0 µM): 29.9 ± 0.8 % of control
- cell viability ([8]; MCF-7, 48 h, 1.0 µM): 84.6 ± 9.4 % of control
- cell viability ([8]; MCF-7, 48 h, 10.0 µM): 76.8 ± 3.8 % of control
- cell viability ([8]; MCF-7, 48 h, 100.0 µM): 12.1 ± 2.7 % of control
- IC50 at 24 h ([9]; HaCaT keratinocytes, 24 h): > 100 µM
- IC50 at 48 h ([9]; HaCaT keratinocytes, 48 h): 49.4 ± 1.2 µM
- IC50 at 24 h [9, 12]: 62.2 ± 2.2 µM
- IC50 at 48 h [9, 13]: 47.3 ± 1.7 µM
- IC50 at 24 h [9, 14]: 65.7 ± 1.9 µM
- IC50 at 48 h [9, 15]: 55.6 ± 2.3 µM
- IC50 at 24 h [9, 16]: 74.4 ± 0.6 µM
- IC50 at 48 h [9, 17]: 58.2 ± 2 µM
- Growth inhibition, MIC50 (Candida albicans KMM 455 [10]): 10.44 ± 1.07 µM
- MIC50 (Candida albicans KMM 455 [10]): 7 to 10 µM (≈ 3.06 to 4.37 µg/mL)
- Growth inhibition, MIC50 [11]: 9.38 ± 0.77 µM
- MIC50 [11]: 7 to 11 µM (≈ 3.06 to 4.8 µg/mL)
